In patent US10385024B2, “Compounds and methods for inhibiting NHE-mediated antiport in the treatment of disorders associated with fluid retention or salt overload and gastrointestinal tract disorders” (Ardelyx, Inc., priority 2012, dated 2019):

Key:
Rat NHE-3 [1] = biological target: T1, Rat NHE-3 (Rattus norvegicus, UniProt P26433); assay: Cell-based assay of NHE-3 activity (rat NHE-3 prompt inhibition); details: OK cells with rat NHE-3 gene, compound present during pH recovery; for IC50: read-out: Rat NHE3 pIC50 (prompt) (converted)
T1 construct: expressed in transfected cells; host or cells: Opossum kidney (OK) cells (ATCC), transfected by electroporation
Summary of the method: (§1)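 Opossum kidney cells electroporated with rat or human NHE-3, loaded with 5 μM BCECF-AM in NH4Cl-HEPES pH 7.4 for 30 min at RT, then acidified 10 min in Na+-free choline HEPES. Na+-dependent pH recovery rates from BCECF fluorescence, averaged over ≥2 replicates, gave pIC50.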

[2] = system: absorption of sodium from the intestinal lumen; assay: Inhibition of intestinal sodium absorption (urinary sodium and fecal form); assay type: in vivo, Sprague-Dawley rats; details: rat; for response vs control in vivo at 3 mg/kg: 3 mg/kg oral gavage, urine 16 h post-dose, asterisks = significance vs vehicle (*P<0.05, **P<0.01, ***P<0.001), read-out: uNa (% of vehicle)
Procedure: Urinary sodium concentration and fecal form were measured to assess the ability of selected example compounds to inhibit the absorption of sodium from the intestinal lumen. Eight-week old Sprague-Dawley rats were purchased from Charles River Laboratories (Hollister, Calif.), were housed 2 per cage, and acclimated for at least 3 days before study initiation. Animals were fed Harlan Teklad Global 2018 rodent chow (Indianapolis, Ind.) and water ad libitum throughout the study and maintained in a standard light/dark cycle of 6 AM to 6 PM. On the day of the study, between 4 PM and 5 PM, a group of rats (n=6) were dosed via oral gavage with test compound at the dosage indicated or vehicle (water) at a volume of 10 mL/kg. After dose administration animals were placed in individual metabolic cages where they were also fed the same chow in meal form and watered ad libitum. At 16 h post-dose, the urine samples were collected and fecal form was assessed by two independent observations. Fecal forms were scored according to a common scale associated with increasing fecal water to the wettest observation in the cage's collection funnel (1, normal pellet; 2, pellet adhering to sides of collection funnel due to moisture; 3, loss of normal pellet shape; 4, complete loss of shape with a blotting pattern; 5, liquid fecal streams evident). A rat's fecal form score (FFS) was determined by averaging both observational scores for all rats within a group (n=6). In every study the vehicle group average was 1. For urine samples, the volumes were determined gravimetrically and centrifuged at 3,600×g. The supernatants were diluted 100-fold in deionized Milli-Q water then filtered through a 0.2 μm GHP Pall AcroPrep filter plate (Pall Life Sciences, Ann Arbor, Mich.) prior to analysis by ion chromatography. Ten microliters of each filtered extract was injected onto a Dionex ICS-3000 ion chromatograph system (Dionex, Sunnyvale, Calif.). Cations were separated by an isocratic method using 25 mM methanesulfonic acid as the eluent on an IonPac CS12A 2 mm i.d.×250 mm, 8 μm particle size cation exchange column (Dionex). Sodium was quantified using standards prepared from a cation standard mix containing Li^+, Na^+, NH4^+, K^+, Mg^2+, and Ca^2+ (Dionex). The mean mass of sodium urinated for every group in the 16 h period was determined with the vehicle group usually urinating approximately 21 mg sodium. The urine Na (uNa) for rats in the test groups were expressed as a percentage of the vehicle mean and the means were compared to that of the vehicle group by utilizing a one-way analysis of variance coupled with a Dunnett's post hoc test.

Rat NHE-3 [3] = biological target: T1, Rat NHE-3; assay: Cell-based assay of NHE-3 activity (persistent inhibition, after washout); details: OK cells with rat NHE-3 gene, 60 min incubation, recovery initiated 40 min after compound washout; for IC50: read-out: Rat NHE3 pIC50 (persistent) (converted)
Summary of the method: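 OK cells transiently expressing rat NHE-3 were exposed to 0-30 μM compound in NaCl-HEPES pH 7.4 for 60 min, then washed free of drug before NH4Cl/BCECF-AM loading and acid-loading in Na+-free choline buffer. Na+-dependent pH recovery rates (mean of ≥2 replicates) gave pIC50.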

human NHE-3 = biological target: T2, human NHE-3 (Homo sapiens, UniProt P48764); assay: Cell-based assay of NHE-3 activity (human NHE3 inhibition assay); details: OK cells with human NHE-3 gene, BCECF pH dye, 0-30 μM test compound; for IC50: read-out: Human NHE3 pIC50 (converted)
T2 construct: expressed in transfected cells; host or cells: Opossum kidney (OK) cells (ATCC), transfected by electroporation
T2 sequence (P48764 26-834): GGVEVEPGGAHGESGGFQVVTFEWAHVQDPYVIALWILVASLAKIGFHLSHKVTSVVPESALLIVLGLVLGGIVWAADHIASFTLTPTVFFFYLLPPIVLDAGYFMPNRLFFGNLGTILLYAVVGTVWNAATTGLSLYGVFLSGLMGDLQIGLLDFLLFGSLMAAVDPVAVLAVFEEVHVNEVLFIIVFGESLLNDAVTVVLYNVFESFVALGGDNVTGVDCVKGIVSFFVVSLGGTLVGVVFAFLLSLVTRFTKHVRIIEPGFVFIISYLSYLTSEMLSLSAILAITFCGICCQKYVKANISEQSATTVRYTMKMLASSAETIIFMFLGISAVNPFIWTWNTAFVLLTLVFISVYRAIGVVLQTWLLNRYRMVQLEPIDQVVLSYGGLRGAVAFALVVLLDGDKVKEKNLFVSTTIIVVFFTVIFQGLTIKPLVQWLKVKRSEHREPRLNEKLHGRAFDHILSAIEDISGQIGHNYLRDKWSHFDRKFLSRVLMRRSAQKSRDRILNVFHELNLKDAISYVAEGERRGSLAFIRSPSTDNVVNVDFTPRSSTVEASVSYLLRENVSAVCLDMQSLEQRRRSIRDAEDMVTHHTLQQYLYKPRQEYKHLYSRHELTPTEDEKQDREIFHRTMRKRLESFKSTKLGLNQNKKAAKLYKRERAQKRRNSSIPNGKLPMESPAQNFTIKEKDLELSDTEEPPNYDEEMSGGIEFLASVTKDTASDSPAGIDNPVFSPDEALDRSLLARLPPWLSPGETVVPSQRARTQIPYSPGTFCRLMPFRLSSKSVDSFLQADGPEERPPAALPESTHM
Summary of the method: as §1

T1 sequence (P26433 29-831): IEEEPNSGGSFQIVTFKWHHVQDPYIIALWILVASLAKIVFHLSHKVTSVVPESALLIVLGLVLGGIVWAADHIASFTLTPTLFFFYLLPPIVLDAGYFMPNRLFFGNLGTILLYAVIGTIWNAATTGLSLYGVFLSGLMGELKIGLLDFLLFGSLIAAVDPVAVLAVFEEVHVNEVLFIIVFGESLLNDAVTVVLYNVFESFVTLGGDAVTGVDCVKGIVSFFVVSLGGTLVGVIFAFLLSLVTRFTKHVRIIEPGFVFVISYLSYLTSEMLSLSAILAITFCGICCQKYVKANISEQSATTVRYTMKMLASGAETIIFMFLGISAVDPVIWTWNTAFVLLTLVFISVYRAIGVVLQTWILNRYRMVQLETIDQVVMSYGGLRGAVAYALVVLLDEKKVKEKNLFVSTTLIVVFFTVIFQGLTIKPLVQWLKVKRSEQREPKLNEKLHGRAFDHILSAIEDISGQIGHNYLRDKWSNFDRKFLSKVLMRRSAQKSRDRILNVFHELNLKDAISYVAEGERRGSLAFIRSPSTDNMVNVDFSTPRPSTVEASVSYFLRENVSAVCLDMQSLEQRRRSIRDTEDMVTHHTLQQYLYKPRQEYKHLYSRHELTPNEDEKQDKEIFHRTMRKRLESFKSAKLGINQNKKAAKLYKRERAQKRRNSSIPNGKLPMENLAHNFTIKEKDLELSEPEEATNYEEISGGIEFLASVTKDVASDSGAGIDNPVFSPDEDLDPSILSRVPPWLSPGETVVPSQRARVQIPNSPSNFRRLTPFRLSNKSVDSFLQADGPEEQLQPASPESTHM

Structure (SMILES)	IC50 (Rat NHE-3 [1]) [nM]	FFS ([2]; fecal form score, scale 1 (normal pellet) to 5 (liquid fecal streams), group average, 3 mg/kg oral, 16 h post-dose, vehicle = 1)	response vs control in vivo at 3 mg/kg [2] [%]	IC50 (Rat NHE-3 [3]) [nM]	IC50 (human NHE-3) [nM]	Rat NHE3 pIC50 (prompt) (Rat NHE-3 [1])	Rat NHE3 pIC50 (persistent) (Rat NHE-3 [3])	Human NHE3 pIC50 (human NHE-3)
CN1Cc2c(Cl)cc(Cl)cc2[C@H](c2cccc(S(=O)(=O)NCCOCCOCCNC(=O)CCC(CCC(=O)NCCOCCOCCNS(=O)(=O)c3cccc([C@@H]4CN(C)Cc5c(Cl)cc(Cl)cc54)c3)(CCC(=O)NCCOCCOCCNS(=O)(=O)c3cccc([C@@H]4CN(C)Cc5c(Cl)cc(Cl)cc54)c3)NC(=O)N[C@@H](CC(=O)O)C(=O)O)c2)C1 [Example 12, (S)-2-(3-(1,25-bis(3-((S)-6,8-dichloro-2-methyl-1,2,3,4-tetrahydroisoquinolin-4-yl)phenylsulfonamido)-13-(3-(2-(2-(2-(3-((S)-6,8-dichloro-2-methyl-1,2,3,4-tetrahydroisoquinolin-4-yl)phenylsulfonamido)ethoxy)ethoxy)ethylamino)-3-oxopropyl)-10,16-dioxo-3,6,20,23-tetraoxa-9,17-diazapentacosan-13-yl)ureido)succinic acid]	< 100	3	35 to 75	< 100	< 100	–	–	–
CN1Cc2c(Cl)cc(Cl)cc2[C@H](c2cccc(S(=O)(=O)NCCOCCOCCNC(=O)CCC(CCC(=O)NCCOCCOCCNS(=O)(=O)c3cccc([C@@H]4CN(C)Cc5c(Cl)cc(Cl)cc54)c3)(CCC(=O)NCCOCCOCCNS(=O)(=O)c3cccc([C@@H]4CN(C)Cc5c(Cl)cc(Cl)cc54)c3)NC(=O)Cc3nnn[nH]3)c2)C1 [Example 38]	–	–	< 35	–	–	B (B NHE3 pIC50 5-7)	C (C NHE3 pIC50 > 7)	C (C NHE3 pIC50 > 7)
CN1Cc2c(Cl)cc(Cl)cc2[C@H](c2cccc(S(=O)(=O)NCCOCCOCCNC(=O)CCC(CCC(=O)NCCOCCOCCNS(=O)(=O)c3cccc([C@@H]4CN(C)Cc5c(Cl)cc(Cl)cc54)c3)(CCC(=O)NCCOCCOCCNS(=O)(=O)c3cccc([C@@H]4CN(C)Cc5c(Cl)cc(Cl)cc54)c3)NC(=O)NC(CO)CO)c2)C1 [Example 34]	–	–	< 35	–	–	C (C NHE3 pIC50 > 7)	C (C NHE3 pIC50 > 7)	C (C NHE3 pIC50 > 7)
CN1Cc2c(Cl)cc(Cl)cc2[C@H](c2cccc(S(=O)(=O)NCCOCCOCCNC(=O)N(C)CCCN(CCCN(C)C(=O)NCCOCCOCCNS(=O)(=O)c3cccc([C@@H]4CN(C)Cc5c(Cl)cc(Cl)cc54)c3)CCCN(C)C(=O)NCCOCCOCCNS(=O)(=O)c3cccc([C@@H]4CN(C)Cc5c(Cl)cc(Cl)cc54)c3)c2)C1 [Example 47, (S)—N,N′-(15-(1-(3-((S)-6,8-dichloro-2-methyl-1,2,3,4-tetrahydroisoquinolin-4-yl)phenylsulfonamido)-11-methyl-10-oxo-3,6-dioxa-9,11-diazatetradecan-14-yl)-11,19-dimethyl-10,20-dioxo-3,6,24,27-tetraoxa-9,11,15,19,21-pentaazanonacosane-1,29-diyl)bis(3-((S)-6,8-dichloro-2-methyl-1,2,3,4-tetrahydroisoquinolin-4-yl)benzenesulfonamide)]	100 to 10000	–	35 to 75	< 100	< 100	–	–	–
CN1Cc2c(Cl)cc(Cl)cc2[C@H](c2cccc(S(=O)(=O)NCCOCCOCCNC(=O)CCC(CCC(=O)NCCOCCOCCNS(=O)(=O)c3cccc([C@@H]4CN(C)Cc5c(Cl)cc(Cl)cc54)c3)(CCC(=O)NCCOCCOCCNS(=O)(=O)c3cccc([C@@H]4CN(C)Cc5c(Cl)cc(Cl)cc54)c3)NC(=O)N[C@@H](CO)C(=O)O)c2)C1 [Example 39]	–	–	< 35	–	–	C (C NHE3 pIC50 > 7)	C (C NHE3 pIC50 > 7)	C (C NHE3 pIC50 > 7)
CN1Cc2c(Cl)cc(Cl)cc2[C@H](c2cccc(S(=O)(=O)NCCOCCOCCNC(=O)CCC(CCC(=O)NCCOCCOCCNS(=O)(=O)c3cccc([C@@H]4CN(C)Cc5c(Cl)cc(Cl)cc54)c3)(CCC(=O)NCCOCCOCCNS(=O)(=O)c3cccc([C@@H]4CN(C)Cc5c(Cl)cc(Cl)cc54)c3)NC(N)=O)c2)C1 [Example 8, N1,N7-bis(2-(2-(2-(3-((S)-6,8-dichloro-2-methyl-1,2,3,4-tetrahydroisoquinolin-4-yl)phenylsulfonamido)ethoxy)ethoxy)ethyl)-4-(3-(2-(2-(2-(3-((S)-6,8-dichloro-2-methyl-1,2,3,4-tetrahydroisoquinolin-4-yl)phenylsulfonamido)ethoxy)ethoxy)ethylamino)-3-oxopropyl)-4-ureidoheptanediamide]	100 to 10000	–	< 35	< 100	< 100	–	–	–
CN1Cc2c(Cl)cc(Cl)cc2[C@H](c2cccc(S(=O)(=O)NCCOCCOCCOCCNC(=O)CCC(N)(CCC(=O)NCCOCCOCCOCCNS(=O)(=O)c3cccc([C@@H]4CN(C)Cc5c(Cl)cc(Cl)cc54)c3)CCC(=O)NCCOCCOCCOCCNS(=O)(=O)c3cccc([C@@H]4CN(C)Cc5c(Cl)cc(Cl)cc54)c3)c2)C1 [Example 9, 4-amino-4-(1-(3-((S)-6,8-dichloro-2-methyl-1,2,3,4-tetrahydroisoquinolin-4-yl)phenylsulfonamido)-13-oxo-3,6,9-trioxa-12-azapentadecan-15-yl)-N^1,N^7-bis(2-(2-(2-(2-(3-((S)-6,8-dichloro-2-methyl-1,2,3,4-tetrahydroisoquinolin-4-yl)phenylsulfonamido)ethoxy)ethoxy)ethoxy)ethyl)heptanediamide]	< 100	–	< 35	< 100	< 100	–	–	–
CN1Cc2c(Cl)cc(Cl)cc2[C@H](c2cccc(S(=O)(=O)NCCOCCOCCNC(=O)NCCC(CCNC(=O)NCCOCCOCCNS(=O)(=O)c3cccc([C@@H]4CN(C)Cc5c(Cl)cc(Cl)cc54)c3)(CCNC(=O)NCCOCCOCCNS(=O)(=O)c3cccc([C@@H]4CN(C)Cc5c(Cl)cc(Cl)cc54)c3)NC(=O)COCC(=O)O)c2)C1 [Example 66]	–	–	< 35	–	–	C (C NHE3 pIC50 > 7)	C (C NHE3 pIC50 > 7)	C (C NHE3 pIC50 > 7)
